Where a name gives a salt, the structure may show the parent alone.
Legend:
[1] = system: Fusarium solani f. sp. pisi; test: Seed treatment effect against Fusarium solani f. sp. pisi (Fusarium root rot of pea); format: in vivo, Fusarium solani f. sp. pisi on pea; details: 16 days
Method: Seed treatment effect against Fusarium solani f. sp. pisi (Fusarium root rot of pea)
PESA and metconazole were diluted with DMSO respectively and mixed with each other to obtain the desired material mixture. Then, this suspension was applied to pea seeds. The PESA solution and the metconazole solution were applied to seeds respectively for control, and DMSO for untreated control. The seeds were dried and planted in soil that was inoculated with Fusarium solani f. sp. pisi. After growing at 20-24° C. in a greenhouse, for 16 days, symptoms were investigated and the frequency of disease and % control were calculated. The fungicide interactions in the combinations are calculated according to […] formula: E=X+Y−(X*Y)/100 • X=% action by active ingredient A using P ppm of active ingredient • Y=% action by active ingredient B using Q ppm of active ingredient • E=expected % action by active ingredients A and B using P and Q ppm of active ingredients If the action actually observed (O) is greater than the expected action (E), than the action of the combination is super-additive, i.e. there is a synergistic effect. In mathematical terms, synergism corresponds to a value of more than 100 for the ratio of O/E, said ratio O/E of less than 100 signals a loss of activity compared to the expected activity. Synergy Effect=(Observed/Expected)*100

[2] = system: cotton seedlings; test: Pouch assay: main root length of cotton seedlings from treated seeds; format: in vivo; details: for Root Length (cm): 6 day-old cotton seedlings
Method: Seeds of cotton were treated with PESA salt and/or triadimenol (BAYTAN® 30 Flowable Fungicide, Bayer Crop Science, RTP, NC USA). These were assayed in the pouch assay as described above.

In the case of `O=C(O)CCC(=O)NCCc1ccccc1` [PESA, N-(2-phenylethyl)succinamic acid], the “Observed action (% control)” value ([1]; PESA 2 gai/100 kg seed, inoculated soil) is reported as 0 % control and the “Observed action (% control)” value ([1]; PESA 10 gai/100 kg seed, inoculated soil) is reported as 9 % control.
`O=C(O)CCC(=O)NCCc1ccccc1` [PESA salt] was tested, and the “Root Length (cm)” value ([2]; 25 g ai PESA salt/100 lbs. of seed, triadimenol 0) was 14.8 cm, the “Root Length (cm)” value ([2]; 50 g ai PESA salt/100 lbs. of seed, triadimenol 0) was 14.3 cm and the “Effect of adding PESA salt on the fungicide's negative effect on cotton root growth” value ([2]; cotton seed treatment, conclusion in words from Table 2) was “protects or safens cotton from the negative effects of the fungicide on root growth”.
`CC1(C)CCC(Cc2ccc(Cl)cc2)C1(O)Cn1cncn1` (stereo not drawn) [Metconazole, metconazole, reference compound] was tested, and the “Observed action (% control)” value ([1]; metconazole 0.2 gai/100 kg seed) was 55 % control and the “Observed action (% control)” value ([1]; metconazole 1 gai/100 kg seed) was 73 % control.
With `CC(C)(C)C(O)C(Oc1ccc(Cl)cc1)n1cncn1` (stereo not drawn) [Triadimenol, triadimenol, reference compound] the “Root Length (cm)” value ([2]; triadimenol 28.2 g ai/100 lbs. of seed, 0 g ai PESA salt) was 12.8 cm and the “Root Length (cm)” value ([2]; triadimenol 56.4 g ai/100 lbs. of seed, 0 g ai PESA salt) was 12.3 cm.

— US8476198B2, “Fungicidal composition” (Valent BioSciences Corporation, priority 2009, dated 2013)
